Where two headings read alike, the source gives them in different places.
What was measured:
[1] = system: mouse model of generalised seizure (tonic hind limb extensor convulsions); experiment: Maximal electroshock seizure threshold (MEST) test in the mouse; conditions: 30 min post dose
Experimental: The efficacy of the cannabinoid derivative according to formula (I) was tested in a mouse model of generalised seizure, the maximal electroshock seizure threshold (MEST) test.
The maximal electroshock seizure threshold (MEST) test is widely utilized preclinically to evaluate pro- or anti-convulsant properties of test compounds (Loscher et al., 1991).
In the MEST test the ability of a drug to alter the seizure threshold current required to induce hind limb tonic extensor convulsions is measured according to an “up and down” method of shock titration (Kimball et al., 1957). An increase in seizure threshold is indicative of anti-convulsant effect.
The ability of a test compound to alter the stimulus intensity, expressed as current (mA), required to induce the presence of tonic hind limb extensor convulsions, is assessed in the MEST.
Naïve mice were acclimatised to the procedure room in their home cages for up to 7 days, with food and water available ad libitum.
All animals were weighed at the beginning of the study and randomly assigned to treatment groups based on a mean distribution of body weight across groups.
The first animal within a treatment group was given a shock at the expected or estimated CC50 current. For subsequent animals, the current was lowered or raised depending on the convulsions outcome from the preceding animal, in intervals of 5 mA.
Data generated from each treatment group were used to calculate the CC50±SEM values for the treatment group.
Vehicle: (5% ethanol, 10% solutol, 85% Saline) was prepared as follows: 1 mL of ethanol, 2 mL of solutol were warmed to 60° C., in 17 mL of saline (1:2:17).
The test compound, described herein as compound 1, is as shown as formula (I). Test compound was administered at 2, 20 and 200 mg/kg (i.p.) in a 1:2:17 ethanol:solutol:0.9% saline formulation.
The data for each treatment group were recorded as the number of +'s and 0's at each current level employed and this information is then used to calculate the CC50 value (current required for 50% of the animals to show seizure behaviour)±standard error.
Test compound effects were also calculated as percentage change in CC50 from the vehicle control group.
Significant difference between drug-treated animals and controls were assessed according to Litchfield and Wilcoxon (1949).

[2] = Plasma pharmacokinetics following oral dose administration to male Wistar Han rats; assay type: in vivo; conditions: rat, oral gavage; for half-life / AUC(0-inf) / AUC(0-t) / Cmax / Tmax: plasma
Experimental: The plasma pharmacokinetics of compound 1 was assessed following oral dose administration to male Wistar Han Rats.
The Wistar Han Rat was chosen as the animal model for this study as it is an accepted rodent species for preclinical toxicity testing by regulatory agencies. Animals were socially housed (up to 3 animals of the same group) in polycarbonate cages containing appropriate bedding equipped with water bottles and may be provided with items such as devices for hiding in, paper and/or objects for chewing, unless contraindicated by study procedures. Pelleted rodent diet were provided ad libitum throughout the study, except during designated procedures.
The 9 male animals were 8 to 10 weeks old at initiation of dosing.
Vehicle: 1% Ethanol/12% Kolliphor HS-15/87% Saline (w/w/v).
Dose formulation was prepared as follows: test item was dissolved in ethanol. Kolliphor HS-15 and saline was heated separately to 60° C., and the required amount of heated Kolliphor HS-15 added to the test item/ethanol solution. The mixture was stirred at until homogenous. Hot saline was added to the mixture to meet dose level requirements, and stirred at 60° C. until a homogenous solution. Prior to release, the formulations were allowed to cool to 40° C. Subsequently, the formulations were stored at room temperature until dosing.
Groups 1, 2 and 3: The test item was administered to the appropriate animals by oral gavage. The dose was given using a plastic feeding tube.
PK Sample Collection: From animals in Group 1 to 3 blood was collected according to the PK sample collection table (outlined in Table 3). Approximately 0.2 mL blood samples was taken from the jugular vein and collected into tubes containing K2 EDTA as anti-coagulant and stored on ice.
Sample Processing and Storage: Whole blood was processed to plasma by centrifugation (3000 g for 10 minutes at 5° C.) within 1 hour of collection. Plasma samples were transferred into labelled polypropylene tubes and stored at <−75° C. until shipment.

[3] = male, Wistar Han, in vivo, po, 15 mg/kg, 15 mg/kg (measured dose 15 mg/kg)
[4] = male, Wistar Han, in vivo, po, 45 mg/kg (measured dose 101 mg/kg)
[5] = male, Wistar Han, in vivo, po, 150 mg/kg (measured dose 204 mg/kg)

**Q.** With `C=C(C)[C@@H]1CCC(C)=C[C@H]1c1c(O)cc(-c2cnn(C)c2)cc1O` [Compound 1, (1′R,2′R)-5′-methyl-4-(1-methyl-1H-pyrazol-4-yl)-2′-(prop-1-en-2-yl)-1′,2′,3′,4′-tetrahydro-[1,1′-biphenyl]-2,6-diol] as the molecule, how does the “CC50 +/- SEM” value ([1]; 2 mg/kg i.p.) read?
**A.** 30.8 ± 1.0 mA

**Q.** And the “CC50 +/- SEM” value ([1]; 20 mg/kg i.p.)?
**A.** 52.5 ± 1.3 mA

**Q.** What about the “CC50 +/- SEM” value ([1]; 200 mg/kg i.p.) of the same molecule?
**A.** 197.5 ± 20.4 mA

**Q.** What about the “% change from vehicle” value ([1]; CC50, 2 mg/kg i.p.) of the same molecule?
**A.** 27%

**Q.** What about the “% change from vehicle” value ([1]; CC50, 20 mg/kg i.p.) of the same molecule?
**A.** 116%

**Q.** What about the “% change from vehicle” value ([1]; CC50, 200 mg/kg i.p.) of the same molecule?
**A.** 712%

**Q.** What about the half-life ([2]; male, Wistar Han, in vivo, 15 mg/kg (measured dose 15 mg/kg)) of the same molecule?
**A.** 3.3 h

**Q.** And the half-life ([2]; male, Wistar Han, in vivo, 45 mg/kg (measured dose 101 mg/kg))?
**A.** 3.6 h

**Q.** And the half-life ([2]; male, Wistar Han, in vivo, 150 mg/kg (measured dose 204 mg/kg))?
**A.** 4.3 h

**Q.** And the AUC(0-inf) [2, 3]?
**A.** 5330 ng·h/mL

**Q.** And the AUC(0-t) [2, 3]?
**A.** 4250 ng·h/mL

**Q.** What about the Cmax [2, 3] of the same molecule?
**A.** 1130 ng/mL

**Q.** And the Tmax [2, 3]?
**A.** 1 h

**Q.** And the bioavailability ([2]; male, Wistar Han, in vivo, po, 15 mg/kg, 15 mg/kg (measured dose 15 mg/kg), read-out: Bioavailability)?
**A.** 69.6%

**Q.** What about the AUC(0-inf) [2, 4] of the same molecule?
**A.** 48300 ng·h/mL

**Q.** And the AUC(0-t) [2, 4]?
**A.** 47900 ng·h/mL

**Q.** And the Cmax [2, 4]?
**A.** 4010 ng/mL

**Q.** And the Tmax [2, 4]?
**A.** 1 h

**Q.** And the bioavailability ([2]; male, Wistar Han, in vivo, po, 45 mg/kg (measured dose 101 mg/kg), read-out: Bioavailability)?
**A.** 96.4%

**Q.** What about the AUC(0-inf) [2, 5] of the same molecule?
**A.** 105000 ng·h/mL

**Q.** And the AUC(0-t) [2, 5]?
**A.** 101000 ng·h/mL

**Q.** And the Cmax [2, 5]?
**A.** 6730 ng/mL

**Q.** What about the Tmax [2, 5] of the same molecule?
**A.** 8 h

**Q.** What about the bioavailability ([2]; male, Wistar Han, in vivo, po, 150 mg/kg (measured dose 204 mg/kg), read-out: Bioavailability) of the same molecule?
**A.** 107%

**Q.** And the bioavailability ([2]; across concentrations (15, 45, 150 mg/kg))?
**A.** high

**Q.** For `CN1C(=O)CN=C(c2ccccc2)c2cc(Cl)ccc21` [Diazepam, diazepam, reference compound], which “% change from vehicle” value ([1]; CC50, diazepam 2.5 mg/kg i.p.) is on record?
**A.** 223%

— patent publication US12534438B2, “Cannabinoid derivative as a pharmaceutically active compound and method of preparation thereof” (priority 2020, dated 2026)
